Format in all cases: cell-based
Test [1] has as its system mouse β-cells. Kind of test: Capacitance measurement of exocytosis, standard whole-cell patch, inositol phosphate in the pipette-filling solution. The protocol:
Cells expressing EGFP were selected for capacitance measurements. Exocytosis was monitored as changes in cell capacitance using either the perforated patch or standard whole-cell configuration of the patch-clamp technique and an EPC9 patch-clamp amplifier (Heka Elektronik, Lambrecht/Pfalz, Germany). The pipette solution for the perforated patch configuration consisted of (in mM) 76 Cs2SO4, 10 NaCl, 10 KCl, 1 MgCl2, 5 HEPES (pH 7.35 with CsOH) and 0.24 mg/ml amphotericin B. Perforation required a few minutes, and the voltage clamp was considered satisfactory when the Gseries (series conductance) was stable and >35 nS. The pipette solution used for standard whole-cell recordings contained (in mM) 125 Cs-glutamate, 10 CsCl, 10 NaCl, 1 MgCl2, 5 HEPES, 0.05 EGTA, 0.01 GTP and 3 MgATP (pH 7.15 using CsOH). InsP7 isomers were dissolved in the pipette-filling solution to the final concentrations indicated in the text and kept on ice until use. The extracellular medium was composed of (in mM) 118 NaCl, 20 tetraethylammonium-Cl, 5.6 KCl, 1.2 MgCl2, 2.6 CaCl2, 5 HEPES (pH 7.40 using NaOH) and 3 glucose. The stimulation protocol consisted of trains of four 500-ms depolarizations applied at 1 Hz and went from −70 mV to zero mV. The capacitance measurements were performed at 33° C. and the recording chamber was perfused at a rate of 1.5 ml/min.
An important concern is that IP6K's can also use InsP5 as a substrate, generating a different subset of inositol pyrophosphates (4). Therefore, it was necessary to verify that InsP7 is able to directly promote exocytosis. The mammalian InsP7 is the 5-isomer and this was used in detailed experiments (FIG. 3A-D). We also assessed other theoretical isomers of InsP7 (FIG. 3E). To measure the effects of 5-InsP7 on exocytosis, we applied trains of depolarizations in standard whole-cell experiments where the β-cell was dialyzed with a solution containing 3 μM InsP7. Following establishment of the whole-cell configuration, the cell was allowed two minutes equilibration period. A train consisting of four 500 ms depolarizations from −70 mV to 0 mV was then applied to evoke exocytosis. In a series of six experiments, the total increase in cell capacitance amounted to 231+/−12 fF (P<0.01) in the presence of 3 μM InsP7 in the pipette-filling solution and 77+/−11 fF under control conditions, respectively (FIG. 3A). […] The stimulatory action of 5-InsP7 on exocytosis was concentration dependent (FIG. 3D). […] At higher concentrations, 5-InsP7 stimulated exocytosis by 90-410%. Approximating the average data points to the Hill equation yielded a half-maximal stimulatory effect of 1.02 μM and a co-operativity factor of 1.5. […] Thus, 5-InsP7 dose-dependently enhances exocytosis within the physiological range of InsP7 concentrations (1-10 μM). […] This is because the effect of InsP6 on exocytosis can only be discerned under conditions in which endocytosis is inhibited (15). This is not the case for InsP7. […] Our data illustrate that InsP7 and InsP6 have distinct effects on exocytosis.

The test system of test [2] is whole-cell Ca2+ current in mouse β-cells. Kind of test: Whole-cell Ca2+ current (integrated Ca2+ current) during depolarization train. The conditions noted are these: 3 μM in the pipette-filling solution. The protocol:
FIG. 3. InsP7 dose-dependently promotes Ca2+-dependent exocytosis. Individual mouse β-cells were subjected to a train of four 500-ms depolarizations using the standard whole-cell patch configuration. (A) Exocytosis was observed under control conditions and in the presence of 3 μM 5-InsP7 in the pipette-filling solution. 5-InsP7 was allowed to diffuse into the cell for 2 min before initiation of the experiment. (B) Histogram summarizing the average increases in cell capacitance plotted against the individual depolarizations as well as the total increases in cell capacitance at the end of the train in the absence or presence of 3 μM 5-InsP7 in the pipette-filling solution. (C) Histogram showing integrated Ca2+ current (QCa) plotted against the individual depolarizations in the absence or presence of 3 μM InsP7 in the pipette-filling solution. (D) Concentration dependence of stimulatory action of 5-InsP7 on exocytosis evoked by a single membrane depolarization from −70 mV to zero. The curve represents a least-squares fit of the mean data points to the Hill equation. […]
Cells expressing EGFP were selected for capacitance measurements. Exocytosis was monitored as changes in cell capacitance using either the perforated patch or standard whole-cell configuration of the patch-clamp technique and an EPC9 patch-clamp amplifier (Heka Elektronik, Lambrecht/Pfalz, Germany). […]

Test [3] concerns mouse β-cells. As to the kind of experiment: Capacitance measurement of exocytosis, standard whole-cell patch, inositol phosphate in the pipette-filling solution. The arrangement: dose or concentration left out as unconfirmed. The settings on record: at InsP7; single depolarization from −70 mV to zero.
Where [4] appears, read: in the presence of 5-InsP7 (3 μM).

Take `O=P(O)(O)O[C@H]1[C@H](OP(=O)(O)O)[C@@H](OP(=O)(O)O)[C@H](OP(=O)(O)O)[C@@H](OP(=O)(O)O)[C@H]1OP(=O)(O)O` [InsP6]: in the test on mouse β-cells [1] (same conditions as for InsP7, 10 μM InsP6 in the pipette-filling solution), the “net effect on exocytosis/endocytosis” value was “promote endocytosis not exocytosis”. In the test with mouse β-cells [1] (when endocytosis is inhibited (data not shown)), the “selective promotion of secretion from the RRP” value is on record as “does not selectively promote secretion from the RRP”.
Regarding `O=P(O)(O)OC1[C@@H](OP(=O)(O)O)[C@H](OP(=O)(O)O)C(OP(=O)(O)OP(=O)(O)O)[C@H](OP(=O)(O)O)[C@H]1OP(=O)(O)O` (stereo partly drawn) [5-InsP7, 5-Diphosphoinositol pentakisphosphate], the “change in the whole-cell Ca2+ current” value in test [2] is listed as “not associated with a change”. The “concentration giving maximal stimulation of exocytosis” value in the test on mouse β-cells [1] was at least 10 µM. Moreover, the “total increase in cell capacitance” value in the test with mouse β-cells [1] (3 μM InsP7 in the pipette-filling solution, train of four 500 ms depolarizations, six experiments) is listed as 231+/−12 fF. Further, the EC50 with mouse β-cells [1] (Hill equation fit of average data points, read-out: half-maximal stimulatory effect on exocytosis) was 1020 nM. Moreover, the “maximal stimulation of exocytosis” value in the test on mouse β-cells [1] (at InsP7 ≧10 μM) was above 380%. Moreover, the stimulation of exocytosis with mouse β-cells [1] (at higher concentrations (above 0.1), single depolarization) is given as 90-410%. Also, in the test on mouse β-cells [1] (setting [4]), the “capacitance increase evoked by the first depolarization” value is “strongly stimulated” and the “exocytosis in response to the subsequent 3 depolarizations” value was “only little effect”. The “exocytotic response in cells with IP6K1 silenced” value in the test on mouse β-cells [1] (whole cell mode, IP6K1 siRNA-treated primary β-cells) is on record as “restore normal exocytotic response”. In addition, in the test on mouse β-cells [3], the “stimulation of exocytosis at low concentration” value is reported as “No stimulation”.

These data come from US7855049B2, “Inositol pyrophosphates determine exocytotic capacity” (BioCrine AB, priority 2007, dated 2010).
